18 molecules from patent US20070129383A1, “Substituted 2-amino-[1,2,4]triazolo[1,5-a]pyrimidine derivative and use thereof” (priority 2003, published 2007) can be followed below.

Molecules are shown by their SMILES.

The test deals with MHC class I expression of T1 cell (human lymphoma line 174×CEM.). Nature of the test: Effect on MHC class I expression of T1 cell (flow cytometry, MFI). In kind it is cell-based. Conditions: 72 h, concentration inhibiting MHC class I molecule expression level by 20%, T1 cells, three days incubation, read-out: EC20. The method, then: T1 cells (5.7×10^3 cells/200 μL/well) were incubated using a 96-well flat bottom microplate in RPMI1640 culture medium (Iwaki Glass Corporation) containing 10% bovine serum (hereinafter referred to as FBS; Iruvine Scientific) in the presence of a test compound of each concentration diluted from 400 μM by a common ratio of root 10 at 37° C. in an incubator containing 5% carbon dioxide concentration for three days. After incubation, cells were stained with fluoroisothiocyanate labeled mouse antihuman MHC class I monoclonal antibody (antibody produced by cell strain W6/32 (ATCC No, CRL1991). Mean fluorescence intensity (hereinafter referred to as MFI) of stained cells was measured with flow cytometry FACScan (BD), and this was assumed as MHC class I molecule expression level. Concentrations of the test compounds which inhibited the expression level of MHC class I molecule by 20% (EC20 value) were calculated from the following Expression (1), which are shown in Table 1. [formula]
(In general: A flow cytometer gives signals particle by particle.)
Turning to `CNc1nc2nccc(-c3cccs3)n2n1` [Example 001, N-methyl-7-thiophene-[1,2,4]triazolo[1,5-a]pyrimidin-2-ylamine], the IC20 came to 6 µM.

Turning to `CC(C)(C)OC(=O)Nc1nc2nccc(-c3ccccc3)n2n1` [Example 007], the IC20 stood at 6.25 µM.

For the molecule `COc1cccc(-c2ccnc3nc(NC(=O)OC(C)(C)C)nn23)c1` [Example 008], the IC20 is 7.5 µM.

On to `CC(C)(C)OC(=O)Nc1nc2nccc(-c3ccc([N+](=O)[O-])cc3)n2n1` [Example 009], for which the IC20 was 7.2 µM.

On to `CC(=O)C1CC(CC(=O)Nc2nc3nccc(-c4cccs4)n3n2)C1(C)C` (stereo not drawn) [Example 013], for which the IC20 stood at 8.2 µM.

For the molecule `CC(C)=CC(=O)Nc1nc2nccc(-c3cccs3)n2n1` [Example 015], the IC20 is 9.2 µM.

For `O=C(CC1CCCC1)Nc1nc2nccc(-c3cccs3)n2n1` [Example 016], the IC20 came out at 9.7 µM.

Turning to `O=C(/C=C\Sc1ccccc1)Nc1nc2nccc(-c3cccs3)n2n1` [Example 020], the IC20 came to 5.3 µM.

As for `O=C(CCS(=O)(=O)c1ccccc1)Nc1nc2nccc(-c3cccs3)n2n1` [Example 022, 3-benzenesulfonyl-N-(7-thiophene[1,2,4]triazolo[1,5-a]pyrimidin-2-yl)propionamide], the IC20 turned out to be 8.2 µM.

On to `O=C(Nc1nc2nccc(-c3cccs3)n2n1)C1C2CC3C(C2=O)C31` (stereo not drawn) [Example 026], for which the IC20 is 8.8 µM.

In the case of `CC1(C)CC(=O)C=C(C(=O)Nc2nc3nccc(-c4cccs4)n3n2)O1` [Example 028, 6,6-dimethyl-4-oxo-5,6-dihydro-4H-pyran-2-carboxylic acid N-(7-thiophen-2-yl-[1,2,4]triazolo[1,5-a]pyrimidin-2-yl)amide], the IC20 was determined as 7.7 µM.

`CC(C)(C)OC(=O)NC(CSCc1ccccc1)C(=O)Nc1nc2nccc(-c3cccs3)n2n1` (stereo not drawn) [Example 036]: the IC20 came out at 7.1 µM.

Regarding `CC(C)[C@H](N)C(=O)Nc1nc2nccc(-c3cccs3)n2n1` [Example 040], the IC20 was 8.4 µM.

Regarding `CCC(NC(=O)OC(C)(C)C)C(=O)Nc1nc2nccc(-c3cccs3)n2n1` [Example 047, (S)-(1-(7-thiophen-2-yl-triazolo[1,5-a]-pyrimidin-2-ylcarbamoyl)propyl)carbamic acid tert-butyl ester], the IC20 was determined as 7.3 µM.

As for `COc1ccc(-c2ccnc3nc(NC(C)=O)nn23)cc1` [Example 052], the IC20 amounted to 6.8 µM.

Consider `COc1cccc(-c2ccnc3nc(NC(=O)CCS(=O)(=O)c4ccccc4)nn23)c1` [Example 054, 3-benzenesulfonyl-N-(7-(3-methoxyphenyl)-[1,2,4]triazolo[1,5-a]pyrimidin-2-yl)propionamide], for which the IC20 worked out at 4 µM.

On to `O=C(CCS(=O)(=O)c1ccccc1)Nc1nc2nccc(-c3ccccc3)n2n1` [Example 055], for which the IC20 amounted to 1.6 µM.

With `COc1ccc(-c2ccnc3nc(NC(=O)CCS(=O)(=O)c4ccccc4)nn23)cc1` [Example 056, 3-benzenesulfonyl-N-(7-(4-methoxyphenyl)-[1,2,4]triazolo[1,5-a]pyrimidin-2-yl)propionamide], the IC20 was found to be 0.74 µM.
